According to patent US12049518B2, “Pharmacokinetics and cholecystokinin-2 receptor (CCK2R) targeting for diagnosis and therapy” (Medizinische Universitat Innsbruck, priority 2017, dated 2024):
Like-named read-outs stand apart in the source and are kept apart here. Where a SMILES comes first, the peptide text is derived from it. [ ]: non-standard residue; d: D form. The star is where a group is joined. DOTA = O=C(O)CN1CCN(CC(=O)O)CCN(CC(=O)*)CCN(CC(=O)O)CC1; 1Nal = N[C@@H](Cc1cccc2ccccc12)C(=O)O; NMeNle = CCCC[C@H](NC)C(=O)O

Legend:
[1] = biodistribution: uptake in normal tissues; format: in vivo, athymic BALB/c nude mice
Experimental: Biodistribution studies evaluating the tumour uptake of the radiolabelled inventive CCK2R targeting peptide analogues were performed in 7-week-old female athymic BALB/c nude mice (Charles River, Sulzfeld, Germany). All animal experiments were conducted in compliance with the Austrian animal protection laws and with the approval of the Austrian Ministry of Science. For the induction of tumour xenografts, A431-CCK2R and A431-mock cells were injected subcutaneously in the right and left flank respectively (2 million cells in 200 μl). When tumours had reached a size of approximately 0.2 ml biodistribution studies were carried out. Groups of 4 mice were injected intravenously via a lateral tail vein with the peptidomimetics of the present invention, labelled with ^111In (approximately 0.2 MBq and 0.02 nmol peptidomimetic), with ^68Ga (approximately 0.8 MBq and 0.02-0.03 nmol peptidomimetic), with ^177Lu (approximately 0.5 MBq and 0.02 nmol peptidomimetic) or with ^99mTc (approximately 0.3 MBq and 0.02 nmol peptidomimetic). After a time period of 1 or 4 h post-injection (p.i.) the animals were sacrificed by cervical dislocation, tumours and other tissues (blood, lung, heart, muscle, bone, spleen, intestine, liver, kidneys, stomach, pancreas) were removed, weighed, and their radioactivity measured in the gamma counter. Results were expressed as percentage of injected activity per gram tissue (% IA/g) and tumour to organ activity ratios were calculated from the activity measured in the dissected tissues. In FIG. 4 the results of the biodistribution studies at 4 h p.i. are summarized for the ^111In-labelled peptidomimetics of the present invention in comparison with ^111In-DOTA-MGS1 and ^111In-DOTA-MGS4 (Klingler M et al., Eur J Nucl Med Mol Imaging 2017, 44: S228). In FIG. 5 the results for the model peptidomimetics of the present invention, DOTA-MGS5 and HYNIC-MGS5, radiolabelled with different radiometals are shown for different time points of 1 or 4 h p.i. […] The uptake in A431-mock tumour xenografts with values <1% IA/g was very low confirming the high receptor-specific tumour uptake. […] A combination of high stability and increased protein binding in vivo seems therefore to result in an optimal protection of the radioligand against enzymatic degradation in blood allowing reaching an extremely high tumour uptake.

human CCK2R = target: T1, human CCK2R (Homo sapiens, UniProt P32239); assay: CCK2R competition binding assay against [125I]Tyr12-gastrin-I on A431-CCK2R cells
T1 construct: expressed in transfected cells; host or cells: A431 human epidermoid carcinoma cells (A431-CCK2R), plasmid pCR3.1, provided by Dr. Luigi Aloj
T1 sequence (P32239 1-447): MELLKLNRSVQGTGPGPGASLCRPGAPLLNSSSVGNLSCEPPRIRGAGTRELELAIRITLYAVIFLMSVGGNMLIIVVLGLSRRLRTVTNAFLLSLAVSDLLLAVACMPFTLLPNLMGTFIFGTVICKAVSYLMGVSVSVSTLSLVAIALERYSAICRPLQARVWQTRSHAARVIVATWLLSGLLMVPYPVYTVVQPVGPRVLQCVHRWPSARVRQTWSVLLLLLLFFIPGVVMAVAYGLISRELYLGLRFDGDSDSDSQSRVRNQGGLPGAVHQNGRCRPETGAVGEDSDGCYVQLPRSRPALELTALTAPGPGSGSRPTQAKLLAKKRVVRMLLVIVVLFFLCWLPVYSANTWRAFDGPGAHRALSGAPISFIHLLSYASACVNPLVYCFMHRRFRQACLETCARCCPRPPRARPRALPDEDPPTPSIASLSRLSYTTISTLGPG
Experimental: Affinity for CCK2R was studied in A431 human epidermoid carcinoma cells stably transfected with the plasmid pCR3.1 containing the full coding sequence for the human CCK2R (A431-CCK2R) kindly provided by Dr. Luigi Aloj (Aloj L et al., J Nucl Med 2004, 45: 485-494). […] Radioiodination of gastrin-1 was carried out using the chloramine-T method. Non-carrier-added [^125I-Tyr^12]gastrind was obtained by HPLC purification and stored in aliquots at −20° C. Binding assays were carried out in 96-well filter plates (MultiScreenHTS-FB, Merck Group, Darmstadt, Germany) pretreated with 10 mM TRIS/139 mM NaCl pH 7.4 (2×250 μl). For the assay a number of 200,000-400,000 A431-CCK2R cells per well was prepared in 35 mM HEPES buffer pH 7.4 containing 10 mM MgCl2, 14 μM bacitracin and 0.5% BSA (a hypotonic solution disturbing the integrity of the cell membranes). The cells were incubated in triplicates with increasing concentrations of the peptidomimetics (0.0003 to 10,000 nM, for example 0.001 to 1000 nM) and [^125I-Tyr^12]gastrin-I (20,000-60,000 cpm) for 1 h at RT. Incubation was interrupted by filtration of the medium and rapid rinsing with ice-cold 10 mM TRIS/139 mM NaCl pH 7.4 (2×200 μl) and the filters were counted in the gamma-counter. Half maximal inhibitory concentration (IC50) values were calculated following nonlinear regression with Origin software (Microcal Origin 6.1, Northampton, MA) and a representative assay was chosen for comparison.

serum proteins = assay: protein binding to serum proteins (Sephadex G-50 size-exclusion chromatography); format: in vitro ADME; conditions: 37° C.; for fraction unbound at 4 h, 500 pmol/mL / fraction unbound at 24 h, 500 pmol/mL: fresh human serum; for fraction unbound at 4 h, 500 pmol/mL: read-out: Percentage of radioligand bound to serum proteins after 4 h incubation (converted); for fraction unbound at 24 h, 500 pmol/mL: read-out: Percentage of radioligand bound to serum proteins after 24 h incubation (converted); for Percentage of radioligand bound to serum proteins after 24 h incubation: human serum
Experimental: Additionally, protein binding to serum proteins was investigated. For this purpose the ^111In-labelled peptidomimetics were incubated in duplicates in fresh human serum at 37° C. (500 pmol/mL) and analyzed after 4 and 24 h by Sephadex G-50 size-exclusion chromatography (GE Healthcare Illustra, Little Chalfont, UK). The percentage of protein binding was determined by measuring the column and the eluate in a 2480 Wizard 2 automatic gamma-counter (Perkin Elmer Life Sciences and Analytical Sciences, Turku, F).

[2] = in vivo, Nock et al. 2014; cited from earlier work
[3] = stability in vivo (radio-HPLC of blood sample); conditions: BALB/c mice, i.v., 10 min p.i.
Experimental: To further characterise the stability of the radiolabelled peptidomimetics in vivo, metabolic studies were carried out in 5-6-week-old female BALB/c mice (Charles River, Sulzfeld, Germany) injected intravenously with the ^111In- and […] peptidomimetics. All animal experiments were conducted in compliance with the Austrian animal protection laws and with the approval of the Austrian Ministry of Science. To allow monitoring of the metabolites by radio-HPLC, mice were injected with a higher amount of radioactivity (5-15 MBq ^111In and 20-40 MBq ^177Lu, corresponding to 1-2 nmol total peptide) through a lateral tail vein and euthanized by cervical dislocation 10 or 30 min post injection (p.i.). A sample of blood was collected and the degradation was assessed by radio-HPLC.

[4] = CCK2R expressing organ, 1 or 4 h p.i.
[5] = displacement of [125I]Tyr12-gastrin-I, A431-CCK2R cells, 1 h at RT, read-out: IC50
[6] = female, athymic BALB/c nude, mouse, kidneys, iv, total radioactivity, 1 or 4 h p.i. (111In-labelled series: 4 h p.i.), read-out: kidney uptake

Compound `CCCC[C@@H](C(=O)N[C@@H](CC(=O)O)C(=O)N[C@@H](Cc1cccc2ccccc12)C(N)=O)N(C)C(=O)[C@H](Cc1c[nH]c2ccccc12)NC(=O)CNC(=O)[C@H](Cc1ccc(O)cc1)NC(=O)[C@H](C)NC(=O)[C@@H](CCC(=O)O)NC(=O)c1ccc(NN)nc1` [^99mTc-HYNIC-MGS5, metal not drawn] has a kidney uptake ([1]; 1 or 4 h p.i. (111In-labelled series: 4 h p.i.)) of 8 % IA/g, an uptake in pancreas [1, 4] of 7 % IA/g and an uptake in stomach [1, 4] of 13 % IA/g.
`CCCC[C@@H](C(=O)N[C@@H](CC(=O)O)C(=O)N[C@@H](Cc1cccc2ccccc12)C(N)=O)N(C)C(=O)[C@H](Cc1c[nH]c2ccccc12)NC(=O)CNC(=O)[C@@H]1CCCN1C(=O)[C@H](Cc1ccc(O)cc1)NC(=O)[C@@H](CCC(=O)O)NC(=O)CN1CCN(CC(=O)O)CCN(CC(=O)O)CCN(CC(=O)O)CC1` [DOTA-MGS10, DOTA-DGlu-Tyr-Pro-Gly-Trp-(N-Me)Nle-Asp-1Nal-NH2] ({DOTA}-[dE]YPGW[NMeNle]D[1Nal]-NH2) showed an IC50 (human CCK2R; [5]) of 0.9 ± 0.2 nM.
For `CCCC[C@@H](C(=O)N[C@@H](CC(=O)O)C(=O)N[C@@H](Cc1cccc2ccccc12)C(N)=O)N(C)C(=O)[C@H](Cc1c[nH]c2ccccc12)NC(=O)CNC(=O)[C@H](Cc1ccc(O)cc1)NC(=O)[C@H](C)NC(=O)[C@@H](CCC(=O)O)NC(=O)CN1CCN(CC(=O)O)CCN(CC(=O)O)CCN(CC(=O)O)CC1` [DOTA-MGS5, DOTA-DGlu-Ala-Tyr-Gly-Trp-(N-Me)Nle-Asp-1Nal-NH2], the IC50 (human CCK2R; [5]) was 0.4 ± 0.2 nM, the tissue uptake [1, 6] was 4 to 6 %ID/g and the tissue uptake ([1]; female, athymic BALB/c nude, mouse, pancreas, iv, total radioactivity, CCK2R expressing organ, 1 or 4 h p.i., read-out: uptake in pancreas) was 2 to 3 %ID/g. The tissue uptake ([1]; female, athymic BALB/c nude, mouse, stomach, iv, total radioactivity, CCK2R expressing organ, 1 or 4 h p.i., read-out: uptake in stomach) was 5 to 8 %ID/g.
`CCCC[C@@H](C(=O)N[C@@H](CC(=O)O)C(=O)N[C@@H](Cc1cccc2ccccc12)C(N)=O)N(C)C(=O)[C@H](Cc1c[nH]c2ccccc12)NC(=O)CNC(=O)[C@H](Cc1ccc(O)cc1)NC(=O)[C@H](C)NC(=O)[C@@H](CCC(=O)O)NC(=O)CN1CCN(CC(=O)O)CCN(CC(=O)O)CCN(CC(=O)O)CC1` [^68Ga-DOTA-MGS5, metal not drawn] showed a tissue uptake ([1]; female, athymic BALB/c nude, mouse, blood, lung and heart, iv, total radioactivity, 1 or 4 h p.i., read-out: unspecific tissue uptake in blood, lung and heart) of 1 to 2 %ID/g.
In the case of `CSCC[C@H](NC(=O)[C@H](Cc1c[nH]c2ccccc12)NC(=O)CNC(=O)[C@H](Cc1ccc(O)cc1)NC(=O)[C@H](C)NC(=O)[C@@H](CCC(=O)O)NC(=O)CN1CCN(CC(=O)O)CCN(CC(=O)O)CCN(CC(=O)O)CC1)C(=O)N[C@@H](CC(=O)O)C(=O)N[C@@H](Cc1ccccc1)C(N)=O` [^111In-DOTA-MG11, metal not drawn, reference compound] ({DOTA}-[dE]AYGWMDF-NH2), the fraction unbound at 4 h, 500 pmol/mL (serum proteins) is reported as 0.899, the fraction unbound at 24 h, 500 pmol/mL (serum proteins) is reported as 0.938 and the “Percentage of radioligand bound to serum proteins after 24 h incubation” value (serum proteins) is reported as < 10%. For the same compound, the “intact radiopeptide 5 min after injection” value [2] was 5%.
With `CSCC[C@H](NC(=O)[C@H](Cc1c[nH]c2ccccc12)NC(=O)CNC(=O)[C@H](Cc1ccc(O)cc1)NC(=O)[C@H](C)NC(=O)[C@@H](CCC(=O)O)NC(=O)[C@@H](CCC(=O)O)NC(=O)[C@@H](CCC(=O)O)NC(=O)[C@@H](CCC(=O)O)NC(=O)[C@@H](CCC(=O)O)NC(=O)[C@@H](CCC(=O)O)NC(=O)CN1CCN(CC(=O)O)CCN(CC(=O)O)CCN(CC(=O)O)CC1)C(=O)N[C@@H](CC(=O)O)C(=O)N[C@@H](Cc1ccccc1)C(N)=O` [PP-F11, reference compound] the IC50 (human CCK2R) was 0.4 ± 0.1 nM.
With `CCCC[C@@H](C(=O)N[C@@H](CC(=O)O)C(=O)N[C@@H](Cc1cccc2ccccc12)C(N)=O)N(C)C(=O)[C@H](Cc1c[nH]c2ccccc12)NC(=O)CNC(=O)[C@H](Cc1ccc(O)cc1)NC(=O)[C@H](C)NC(=O)[C@@H](CCCCN)NC(=O)CN1CCN(CC(=O)O)CCN(CC(=O)O)CCN(CC(=O)O)CC1` [^111In-DOTA-MGS9, metal not drawn] ({DOTA}-[dK]AYGW[NMeNle]D[1Nal]-NH2) the “intact radioligand present in the blood at 10 min p.i.” value [3] was 93.9±1.2%, the tissue uptake at 4 h ([1]; female, athymic BALB/c nude, mouse, intestine and liver, iv, 0.02 nmol peptidomimetic, total radioactivity, 4 h p.i.) was ~2 %ID/g and the tissue uptake [1, 6] was 20.7 ± 4.4 %ID/g. The fraction unbound at 4 h, 500 pmol/mL (serum proteins) was 0.734, the fraction unbound at 24 h, 500 pmol/mL (serum proteins) was 0.722 and the “Percentage of radioligand bound to serum proteins after 24 h incubation” value (serum proteins) was ~30%.
`CCCC[C@@H](C(=O)N[C@@H](CC(=O)O)C(=O)N[C@@H](Cc1cccc2ccccc12)C(N)=O)N(C)C(=O)[C@H](Cc1c[nH]c2ccccc12)NC(=O)CNC(=O)[C@H](Cc1ccc(O)cc1)NC(=O)[C@@H]1CCCN1C(=O)[C@@H](CCC(=O)O)NC(=O)CN1CCN(CC(=O)O)CCN(CC(=O)O)CCN(CC(=O)O)CC1` [DOTA-MGS8, DOTA-DGlu-Pro-Tyr-Gly-Trp-(N-Me)Nle-Asp-1Nal-NH2] ({DOTA}-[dE]PYGW[NMeNle]D[1Nal]-NH2) showed an IC50 (human CCK2R; [5]) of 1.6 ± 0.2 nM.
Work on `CCCC[C@@H](C(=O)N[C@@H](CC(=O)O)C(=O)N[C@@H](Cc1ccc2ccccc2c1)C(N)=O)N(C)C(=O)[C@H](Cc1c[nH]c2ccccc12)NC(=O)CNC(=O)[C@H](Cc1ccc(O)cc1)NC(=O)[C@H](C)NC(=O)[C@@H](CCC(=O)O)NC(=O)CN1CCN(CC(=O)O)CCN(CC(=O)O)CCN(CC(=O)O)CC1` [DOTA-MGS5-2, DOTA-DGlu-Ala-Tyr-Gly-Trp-(N-Me)Nle-Asp-2Nal-NH2] yielded an IC50 (human CCK2R; [5]) of 1.6 ± 0.4 nM.
